Data set [1] relates to Trypanosoma brucei rhodesiense STIB 900. Briefly: In vitro activity against T. brucei rhodesiense bloodstream forms (Alamar blue). It counts as cell-based. The following applies: for IC50: bloodstream forms STIB 900, 72 h, mean of two independent measurements, read-out: IC50 T. brucei rhodes. (Tbr). As to the method:
(§1) Trypanosoma brucei rhodesiense and cytotoxicity against L6 cells. Minimum Essential Medium with Earle’s salts (50 µL) supplemented with 0.2 mM 2-mercapto-ethanol, 1 mM Na-pyruvate and 15% heat-inactivated horse serum was added to each well of a 96-well microtiter plate. […] Then 10^4 bloodstream forms of Trypanosoma brucei rhodesiense STIB 900 in 50 µL of medium were added to each well and the plate incubated at 37°C under a 5% CO2 atmosphere for 72 hours. […] The plate was then read in a Spectramax Gemini XS microplate fluorometer (Molecular Devices Corporation, Sunnyvale, CA, USA) using an excitation wavelength of 536 nm and emission wavelength of 588 nm. Fluorescence development was measured and expressed as percentage of the control. Data were transferred into the graphic programme Softmax Pro (Molecular Devices) which calculated IC50 values. Cytotoxicity was assessed using a similar protocol and rat skeletal myoblasts (L6 cells). […] All following steps were according to the T. b. rhodesiense protocol.
(In general: The colour change of resazurin is a common sign of viable cells or microbes.)

Data set [2] deals with rat skeletal myoblasts (L6 cells). Kind of data set: Cytotoxicity against L6 cells (Alamar blue). How it is done: as §1
The nature of data set [3]: in vitro. The note with it: rat. As to the method:
as §1

Data set [4] relates to Leishmania donovani amastigotes (strain MHOM/ET/67/L82). Kind of data set: L. donovani axenic amastigote assay (resazurin). It counts as cell-based. The following applies: for IC50: pH 5.4, 72 h, mean of two independent measurements, read-out: IC50 L. donovani (Ldon). How it is done: Leishmania donovani (axenic amastigote assay). […] Serial drug dilutions in duplicates were prepared covering a range from 30 to 0.041 µg/mL. […] The compounds used as positive controls in the various bioassays (see Table 1) were of commercial origin, with the exception of melarsoprol, which was a gift from WHO. Their purity (generally > 95%) was specified by the manufacturers.

The subject of data set [5] is T. cruzi Tulahuen strain C2C4. Kind of data set: In vitro activity against T. cruzi in L-6 host cells (beta-galactosidase/CPRG). In kind it is cell-based, Trypanosoma cruzi. The note with it: Tulahuen C2C4 in L-6 cells, 96 h, mean of two independent measurements, read-out: IC50 T. cruzi (Tcr). How it is done:
Trypanosoma cruzi. Rat skeletal myoblasts (L-6 cells) were seeded in 96-well microtiter plates at 2,000 cells/well in 100 µL RPMI 1640 medium with 10% FBS (fetal bovine serum) and 2 mM L-glutamine. After 24 hours the medium was removed and replaced by 100 µL per well containing 5,000 trypomastigote forms of T. cruzi Tulahuen strain C2C4 containing the β-galactosidase (Lac Z) gene. Fortyeight hours later the medium was removed from the wells and replaced by […] fresh medium with or without a serial drug dilution. Seven 3-fold dilutions were used covering a range from […]. Each drug was tested in duplicate. After 96 hours of incubation the plates were inspected under an inverted microscope to assure growth of the controls and sterility. Then the substrate CPRG/ Nonidet (50 µL) was added to all wells. A colour reaction developed within 2-6 hours and could be read photometrically at 540 nm.

The test system of data set [6] is K1 strain of P. falciparum. Kind of data set: Antiplasmodial [3H]-hypoxanthine incorporation assay. In kind it is cell-based, Plasmodium falciparum. The following applies: mean of two independent measurements, read-out: IC50 P. falciparum (Pfc). How it is done:
Plasmodium falciparum. Antiplasmodial activity was determined using the K1 strain of P. falciparum (resistant to chloroquine and pyrimethamine). A modification of the [3H]-hypoxanthine incorporation assay was used. Briefly, infected human red blood cells (final parasitaemia and haematocrit were 0.3% and 1.25%, respectively) in RPMI 1640 medium with 5% Albumax were exposed to serial drug dilutions in microtiter plates. After 48 hours of incubation at 37°C in a reduced oxygen atmosphere, 0.5 mCi 3H-hypoxanthine was added to each well. Cultures were incubated for a further 24 h before they were harvested onto glass-fiber filters and washed with distilled water. The radioactivity was counted using a BetaplateTM liquid scintillation counter (Wallac, Zurich, Switzerland). […] From the sigmoidal inhibition curves IC50 values were calculated. Assays were run in duplicate and repeated once.

Setting [7] is: protozoa, especially Tbr, versus L6 mammalian cells.
Setting [8] is: Leishmania donovani, 72 h, pH 5.4, axenic amastigotes.
[9] abbreviates: Trypanosoma cruzi, TULAHUEN, L6, 96 h.
Setting [10] is: L6 cells (rat skeletal myoblasts).
Where [11] appears, read: Plasmodium falciparum, K1, K1 strain (resistant to chloroquine and pyrimethamine).

For orientation: IC50 means the point on the concentration scale where inhibition reaches its midpoint.

Where two headings read alike, the source gives them in different places.

`C=C1C(=O)OC2CC3(C)CCCC(=C)C3CC12` (centres unmarked) [Compound 25]: the IC50 in data set [1] (Trypanosoma brucei, 72 h) is 23.6 µM; in data set [4] (setting [8]) it was above 14 µM; in data set [5] (setting [9]), 22.3 µM. Further, in data set [2] (setting [7]), the “antiparasitic activity compared with cytotoxicity (in words)” value is given as “considerably more toxic against the mammalian cells than against the protozoa”. Moreover, in data set [3], the IC50 at 72 h was 4.48 µM.

`C=C1C(=O)OC2CC3(C)CC(O)CC(=C)C3CC12` (centres unmarked) [Compound 26]: the IC50 was 7.8 µM in data set [1] (Trypanosoma brucei, 72 h); above 4 µM in data set [4] (setting [8]); 24.8 µM in data set [5] (setting [9]). Further, the “antiparasitic activity compared with cytotoxicity (in words)” value in data set [2] (setting [7]) is recorded as “considerably more toxic against the mammalian cells than against the protozoa”. This compound also registered an IC50 at 72 h in data set [3] (setting [10]) of 0.948 µM.

Turning to `C=C1C(=O)OC2C1CCC1(C)C(O)CCC(=C)C21` (centres unmarked) [Compound 32], the half-inhibitory concentration (IC50) in data set [6] (K1 strain (resistant to chloroquine and pyrimethamine)) was determined as 13.6 µM; in data set [1] it was 1.11 µM; in data set [2] (read-out: IC50 Cytotoxicity (L6), L6 rat skeletal myoblasts, 72 h, mean of two independent measurements) it was 25.6 µM; in data set [4] (axenic amastigotes) it was 7.34 µM; in data set [5], 26.2 µM.

Regarding `C=C1C(=O)OC2CC(C)C(C=CC(C)=O)=CCC12` (centres unmarked) [Compound 18], the IC50 in data set [6] (setting [11]) stood at 7.83 µM; in data set [1] (Trypanosoma brucei, 72 h), 2.92 µM; in data set [4] (setting [8]), 17.6 µM; in data set [5] (Trypanosoma cruzi, L6), 26.2 µM. The “antiparasitic activity compared with cytotoxicity (in words)” value in data set [2] is “significantly higher levels of antiparasitic activity, especially against Tbr, than cytotoxicity”. This compound also had a half-inhibitory concentration (IC50) at 72 h in data set [3] (setting [10]) of 30.2 µM.

On to `C=C1C(=O)OC2CC(C)C3(C=CC(C)=O)OC3CC12` (centres unmarked) [Compound 19, 8-epixanthatin-1,5-epoxide], for which the IC50 in data set [6] (setting [11]) stood at 6.51 µM; in data set [1] (Trypanosoma brucei, 72 h) it was 0.33 µM; in data set [4] (setting [8]), 0.599 µM; in data set [5] (setting [9]) it was 11.3 µM. Also, the “selectivity index (SI) with respect to Tbr” value in data set [1] (ratio of cytotoxic IC50 (L6) over IC50 against Tbr) turned out to be 67. For the same compound, the “antiparasitic activity compared with cytotoxicity (in words)” value in data set [2] (setting [7]) is “significantly higher levels of antiparasitic activity, especially against Tbr, than cytotoxicity”. In data set [3] (setting [10]), this compound showed an IC50 at 72 h of 22.1 µM. Further, in data set [4] (ratio of cytotoxic IC50 (L6) over IC50 against Ldon), the “selectivity index (SI) with respect to Ldon” value stood at 36.

These data come from PMC6254286, “Quantitative Structure − Antiprotozoal Activity Relationships of Sesquiterpene Lactones ^†” (Molecules, 2009).
